Measurements from US20230381774A1, “MICROFLUDIC LAB-ON-CHIP DEVICE, MATRIX, SMALL MOLECULES AND THREE-DIMENSIONAL SPHEROIDS FOR CELL REPROGRAMMING” (The Regents of the University of California, priority 2022, published 2023).

Key:
Type in all cases: cell-based, mouse
iN cells = experiment: Patch-clamp electrophysiology of iN cells; details: for functionality of derived iN cells: electrophysiological analysis
Protocol: For functional assessment of the iN cells, patch-clamp electrophysiology analysis was performed. All experiments were conducted at room temperature (22° C.-24° C.). All reagents were purchased from Sigma-Aldrich unless otherwise specified. Whole-cell recording was made from neurons using a patch clamp amplifier (MultiClamp 700B, Axon Instr.) under infrared differential interference contrast optics. Microelectrodes were made from borosilicate glass capillaries, with a resistance of 4-5 MW. For recording action potentials, cells were held at −70 mV in a […]. The intracellular solution for whole-cell recording of EPSPs and action potentials contained (in mM) 140 potassium gluconate, 5 KCl, 10 HEPES, 0.2 EGTA, 2 MgCl2, 4 MgATP, 0.3 Na2GTP and 10 Na2-phosphocreatine, pH 7.2 (adjusted with KOH).
For recording spontaneous EPSCs (sEPSCs), cells were pre-treated with the extracellular bath solution containing 50 μM picrotoxin (Tocris) to exclude an inhibitory synaptic activity and held at −70 mV in a voltage-clamp mode with the intracellular solution containing (in mM) 130 CsMeSO4, 7 CsCl, 10 HEPES, 1 EGTA, 4 MgATP, 0.3 Na2GTP, and 10 Na2-phosphocreatine, pH 7.3 (adjusted with CsOH). After recording basal sEPSC responses for 5 min, 10 μM CNQX (Tocris) and 100 μM D,L-APV (Tocris) were co-treated to test whether sEPSCs were mediated by activation of both AMPA- and NMDA-type of glutamate receptors. For measuring spontaneous IPSC (sIPSCs), cells were pre-treated with the bath solution containing 10 μM CNQX and 100 μM D,L-APV and held at −70 mV with the intracellular solution containing (in mM) 137 CsCl, 10 HEPES, 1 EGTA, 4 MgATP, 0.3 Na2GTP, and 10 Na2-phosphocreatine, pH 7.3 (adjusted with CsOH). 50 μM picrotoxin was then treated to test a dependency of sIPSCs on GABA receptors after acquiring basal sIPSC responses for 5 min. Series resistance (10-25 MΩ) and input resistance (˜200 MΩ using potassium-based internal solution; 1-2 G2 using Cs-based internal solution) were monitored throughout the whole-cell recording or compared before and after sEPSC/IPSC recordings.
Off-line analyses of action potential properties (number, amplitude, half-width) and the amplitude and frequency of sEPSC and sIPSC were performed by using a threshold event detection function of the Clampfit software (Molecular Devices). Visualization of analysis results and their statistical tests were performed by using GraphPad Prism® 6.0 software.

calponin and αSMA = experiment: Mesenchymal marker expression (immunostaining, qRT-PCR, Western blot)
Protocol: For immunostaining, cells were fixed with 4% paraformaldehyde (Electron Microscopy Sciences), permeabilized with 0.5% Triton-X-100 (Sigma), and blocked with 5% donkey serum (Jackson Immunoresearch) in phosphate buffered saline (PBS). For actin-cytoskeleton staining, samples were incubated with fluorescein isothiocyanate-conjugated phalloidin (Invitrogen) for 1 hour. Primary antibodies were incubated for 1 hour at room temperature or overnight at 4° C., followed by 1-hour incubation with Alexa 488 and/or Alexa 546-labeled secondary antibodies (Molecular Probes). Nuclei were stained with 4,6-diamino-2-phenylindole (DAPI) (Invitrogen).
(§1) RNA was isolated from samples using Trizol® (Ambion) according to the manufacturer's instructions. For cDNA synthesis, 500 ng of RNA was reverse transcribed using Maxima First Strand cDNA Synthesis Kit (ThermoFisher Scientific). Template DNA was amplified using Maxima SYBR Green/Fluorescein qPCR Master Mix (ThermoFisher Scientific) on a CFX qPCR machine (Bio-Rad). qRT-PCR data were analyzed using CFX Manager 3.1 (Bio-Rad) and gene expression levels were normalized to 18S.
Fibroblasts were lysed and collected in Laemmli buffer ([…] Tris-HCl, 10% glycerol, 2% SDS, 5% 2-mercaptoethanol, 0.002% bromophenol blue) containing RIPA buffer (50 mM Tris-HCl, 150 mM NaCl, 1% Triton-X-100, 0.1% SDS, 10 mM NaF, 0.5% sodium deoxycholate) along with protease inhibitors (PMSF, Na3VO4 and Leupeptin) on ice. Protein lysates were centrifuged to pellet cell debris, and the supernatant was collected and used in further analysis. Protein samples were run using SDS-PAGE and transferred to polyvinylidene fluoride (PVDF) membranes. Membranes were blocked in 3% nonfat milk and incubated with primary antibodies overnight. Primary antibodies include pFAK, FAK, αSMA, Calponin, pERK, ERK, and GAPDH. Membranes were washed with Tris-Buffered Saline+0.05% Tween-20 and incubated with HRP-conjugated IgG secondary antibodies (Santa Cruz Biotechnologies) for one hour. Protein bands were visualized using Western Lightning™ Plus—Enhanced Chemiluminscence Substrate (Perkin Elmer Life & Analytical Sciences) and imaged on a ChemiDoc XRS system (Bio-Rad).

neuronal genes = experiment: qRT-PCR of neuronal gene expression; details: for neuronal gene expression at day 5: blebbistatin or 5 μM PF573228, vs non-treated transduced cells
Protocol: as §1

[1] = system: histone acetyltransferase (HAT); experiment: HAT activity assay on nuclear extracts of treated fibroblasts; details: 10 μM blebbistatin or 5 μM PF573228, 2 hours, vs DMSO
Protocol: (§2) Nuclear protein extractions were isolated from 5×10^5 fibroblasts treated with vehicle control (DMSO), 10 μM blebbistatin or 5 μM PF573228 for 2 hours using a nuclear extraction kit (EpiGentek, OP-0002), in accordance with the manufacturer's instructions. HAT, HDAC, H3K4 HMT, H3K4 HDM and DNMT activity were measured using the HAT activity/inhibition assay (EpiGentek, P-4003-048), HDAC activity/inhibition assay (EpiGentek, P-4034-096), Histone methyltransferase (H3K4 specific) activity/inhibition assay (EpiGentek, P-3002-1), Histone Demethylase (H3K4 specific) activity/inhibition assay (EpiGentek, P-3074-48), and DNMT activity/inhibition assay (EpiGentek, P-3009-048), respectively. Per the manufacturer's instructions, 20 μg of nuclear extract was added into the assay wells and incubated at 37° C. for 90 minutes. After adding the color developer solution, the absorbance was measured using a plate reader (Infinite […], 30050303) at 450 nm for all the assays with the exception of the Histone Demethylase (H3K4 specific) activity/inhibition assay where we measured the fluorescence using a fluorescence microplate reader at 530 EX/590 EM nm.

[2] = system: H3K4-specific histone demethylase (HDM); experiment: H3K4 HDM activity assay on nuclear extracts of treated fibroblasts; details: 10 μM blebbistatin or 5 μM PF573228, 2 hours, vs DMSO
Protocol: as §2

[3] = system: DNA methyltransferase (DNMT); experiment: DNMT activity assay on nuclear extracts of treated fibroblasts; details: 10 μM blebbistatin or 5 μM PF573228, 2 hours, vs DMSO
Protocol: as §2

[4] = absence vs presence of blebbistatin

## CS(=O)(=O)c1cccc(CNc2nc(Nc3ccc4c(c3)CCC(=O)N4)ncc2C(F)(F)F)c1 [PF573228]
iN cells
  functionality of derived iN cells: exhibited functional neuronal properties as assessed by electrophysiological analysis
Calponin and αSMA; treated for 2 days
  calponin and αSMA expression in BAM-transduced fibroblasts: decreased
Neuronal genes; BAM-transduced fibroblasts
  neuronal gene expression at day 5: greater
[1]
  HAT activity: differences
[2]
  H3K4-specific HDM activity: differences
[3]
  DNMT activity: a reduction in 5-mC marks and DNMT activity

## Cc1ccc2c(c1)C(=O)C1(O)CCN(c3ccccc3)C1=N2 (centres unmarked) [blebbistatin]
iN cells; [4]
  frequency of spontaneous EPSCs: no significant difference
  frequency of spontaneous IPSCs: no significant difference
iN cells; blebbistatin-derived iN cells
  IPSC amplitude: significantly lower
iN cells
  functionality of derived iN cells: functional, exhibiting spontaneous changes in membrane potential in response to current injection
iN cells; iN cells derived with blebbistatin
  EPSC amplitude: significantly higher
iN cells; iN cells generated in absence vs presence of blebbistatin
  action potential properties: no apparent difference
Calponin and αSMA; non-transduced fibroblasts
  calponin- and αSMA-positive cells: less calponin and α-smooth muscle actin (SMA)-positive cells
Calponin and αSMA; non-transduced fibroblasts, day 3
  calponin and αSMA expression, gene and protein level: decreased at the gene and protein level by day 3
Calponin and αSMA; qRT-PCR, non- and BAM-transduced fibroblasts
  Eln and DCN expression: downregulated the expression of other mesenchymal and fibroblast-associated genes, Eln and DCN
Neuronal genes; Ascl1-transduced fibroblasts
  endogenous Brn2 and Myt1l expression: upregulated the expression of endogenous Brn2 and Myt1l
  expression of several neuronal genes including NeuroD1: higher
Neuronal genes; BAM-transduced fibroblasts
  Ascl1 expression at day 3: upregulated
  Brn2 and Myt1l expression at day 3: did not show such a drastic increase in the expression level
  neuronal gene expression at day 5: significantly increased
[1]
  HAT activity: increased
[2]
  H3K4-specific HDM activity: reduced
[3]
  DNMT activity: a decrease in DNA methyltransferase (DNMT) activity
